From ChEMBL document CHEMBL1131038, “Derivatives of the triazoloquinazoline adenosine antagonist (CGS 15943) having high potency at the human A2B and A3 receptor subtypes” (J Med Chem, 1998)

What was measured:
[1] = Ratio against rat A1 receptor and Human A3 receptor
Adenosine receptor A2b [2] = molecular target: T1, Adenosine receptor A2b (Homo sapiens, UniProt P29275); test: Inhibition of 50 uM 5`-(N-ethylcarboxamido)adenosine induced cAMP production in CHO cell line expressing human Adenosine A2B receptor at 50 uM; assay type: functional, cell-based
T1 sequence (P29275 whole entry): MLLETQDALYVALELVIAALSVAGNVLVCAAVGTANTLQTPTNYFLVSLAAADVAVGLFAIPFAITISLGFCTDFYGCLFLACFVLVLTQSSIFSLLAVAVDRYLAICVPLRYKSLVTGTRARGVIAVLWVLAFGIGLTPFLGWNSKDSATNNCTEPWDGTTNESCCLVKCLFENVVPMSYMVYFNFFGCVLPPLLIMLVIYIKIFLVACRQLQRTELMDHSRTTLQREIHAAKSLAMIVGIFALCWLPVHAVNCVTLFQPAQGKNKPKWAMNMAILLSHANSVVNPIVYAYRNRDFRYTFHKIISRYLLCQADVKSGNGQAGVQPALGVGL

[3] = Ratio against rat A2A receptor and Human A3 receptor
Adenosine receptor A2a = Adenosine receptor A2a (Rattus norvegicus, UniProt P30543); test: Binding affinity was determined in radioligand binding assay at rat striatal Adenosine A2A receptor vs [3H]-CGS- 21680
Adenosine receptor A3 = molecular target: T2, Adenosine receptor A3 (Homo sapiens, UniProt P0DMS8); test: biochemical
T2 sequence (P0DMS8 whole entry): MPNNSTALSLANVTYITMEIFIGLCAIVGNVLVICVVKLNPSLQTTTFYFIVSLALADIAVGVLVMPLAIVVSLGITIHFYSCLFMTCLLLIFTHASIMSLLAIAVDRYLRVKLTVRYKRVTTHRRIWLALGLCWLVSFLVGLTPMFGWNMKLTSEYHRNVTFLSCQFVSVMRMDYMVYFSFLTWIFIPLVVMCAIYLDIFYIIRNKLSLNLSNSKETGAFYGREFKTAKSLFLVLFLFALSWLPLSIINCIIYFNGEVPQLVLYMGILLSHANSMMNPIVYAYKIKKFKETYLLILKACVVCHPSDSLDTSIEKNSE
Description: Binding affinity at cloned human adenosine A3 receptor expressed in HEK293 cells was determined using [125I]AB-MECA as radioligand

Adenosine receptor A1 = molecular target: T3, Adenosine receptor A1 (Rattus norvegicus, UniProt P25099)
T3 sequence (P25099 whole entry): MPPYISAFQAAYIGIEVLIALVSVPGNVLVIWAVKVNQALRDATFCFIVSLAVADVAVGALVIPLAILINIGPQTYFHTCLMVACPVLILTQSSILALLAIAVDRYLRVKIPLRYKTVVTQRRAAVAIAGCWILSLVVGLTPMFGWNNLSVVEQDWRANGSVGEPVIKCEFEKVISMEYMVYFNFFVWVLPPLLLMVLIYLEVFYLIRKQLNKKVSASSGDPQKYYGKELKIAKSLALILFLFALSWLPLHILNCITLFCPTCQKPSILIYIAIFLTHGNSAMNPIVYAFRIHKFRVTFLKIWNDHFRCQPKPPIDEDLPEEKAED
Description: Binding affinity was determined in radioligand binding assay at rat brain adenosine A1 receptor vs [3H]R-PIA

[4] = molecular target: T4, Adenosine receptor A2b (Homo sapiens) (UniProt P29275); test: Inhibition at 50 uM on cAMP production induced by 50 uM 5`-(N-ethylcarboxamido)adenosine in CHO cell line transfected with human Adenosine A2B receptor cDNA; assay type: cell-based
T4 sequence (whole entry): T1 sequence (P29275 whole entry)

Adenosine receptor A2b [5] = molecular target: T1, Adenosine receptor A2b; test: pA2 value at human Adenosine A2B receptor from Schild plots with slopes approaching unity; conditions: read-out: pA2 (converted)
Adenosine receptor A2b [6] = molecular target: T1, Adenosine receptor A2b; test: Inhibition of 50 uM 5`-(N-ethylcarboxamido)adenosine induced cAMP production in CHO cell line expressing human Adenosine A2B receptor; assay type: cell-based

Sequence of Adenosine receptor A2a (P30543 whole entry): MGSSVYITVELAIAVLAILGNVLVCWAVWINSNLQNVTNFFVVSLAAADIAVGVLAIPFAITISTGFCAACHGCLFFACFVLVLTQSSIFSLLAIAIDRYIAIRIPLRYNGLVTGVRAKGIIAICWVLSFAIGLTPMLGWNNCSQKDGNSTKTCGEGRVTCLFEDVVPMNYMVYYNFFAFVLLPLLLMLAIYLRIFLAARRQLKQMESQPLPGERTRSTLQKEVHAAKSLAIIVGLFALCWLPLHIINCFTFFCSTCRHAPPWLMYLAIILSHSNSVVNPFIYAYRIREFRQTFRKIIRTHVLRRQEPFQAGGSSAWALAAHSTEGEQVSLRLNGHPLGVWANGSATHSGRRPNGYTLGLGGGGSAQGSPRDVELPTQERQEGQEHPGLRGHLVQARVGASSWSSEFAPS

| Selectivity ratio [1] | IC50 (Adenosine receptor A2b [2]) | Selectivity ratio [3] | Ki (Adenosine receptor A2a) | Ki (Adenosine receptor A3) | Ki (Adenosine receptor A1) | inhibition [4] | Kb (Adenosine receptor A2b [5]) | IC50 (Adenosine receptor A2b [6]) | SMILES |
| --- | --- | --- | --- | --- | --- | --- | --- | --- | --- |
| 0.55 | 1900 nM | 0.014 | 1.15 nM | 81.3 nM | 45 nM | – | – | – | O=C(O)CCCC(=O)Nc1nc2ccc(Cl)cc2c2nc(-c3ccco3)nn12 |
| 0.11 | – | 0.017 | 1.38 nM | – | 8.75 nM | 100% | 10 nM | 270 nM | NCCCC(=O)Nc1nc2ccc(Cl)cc2c2nc(-c3ccco3)nn12 |
